# Where “and” joins values, the source holds several entries; their conditions need not be identical. Equal values may be shown once. Read-outs that look alike come from different tables or passages of the source.
# Columns and labels:
# [1] = test system: T. b. brucei Lister 427 (wild-type); assay: Drug susceptibility test, Lister 427WT (resazurin); type: cell-based; conditions: Trypanosoma brucei, read-out: Lister-427 EC50
# Method: (§1) Fluorescence was determined using a FLUOstar Optima (BMG Labtech, Durham, N.C.) and the results fitted to a sigmoid curve with variable slope using Prism 5.0 (GraphPad, San Diego, Ca).
# T. b. brucei B48 = assay: microbe, parasite or virus in culture; type: cell-based, Trypanosoma brucei brucei; conditions: for EC50: Trypanosoma brucei, read-out: B48 EC50; for RF (resistance factor) B48: ratio of EC50 between B48 and Lister-427
# Method: as §1
# T. b. brucei ISMR1 = assay: microbe, parasite or virus in culture; type: cell-based, Trypanosoma brucei brucei; conditions: for EC50: Trypanosoma brucei, read-out: ISMR1 EC50; for RF (resistance factor) ISMR1: ratio of EC50 between ISMR1 and Lister-427
# Method: as §1
# T. b. brucei TbAT1-KO = assay: microbe, parasite or virus in culture; type: cell-based, Trypanosoma brucei brucei; conditions: for EC50: Trypanosoma brucei, read-out: TbAT1-KO EC50; for RF (resistance factor) TbAT1-KO: ratio of EC50 between TbAT1-KO and Lister-427
# Method: as §1
# T. brucei Squib 427 = assay: In vitro drug susceptibility, T. brucei Squib 427 (resazurin); type: cell-based, Trypanosoma brucei brucei; conditions: for EC50: Trypanosoma brucei; for selectivity index (SI) for T. b. brucei: MRC-5 versus T. b. brucei
# Method: (§2) All trypanosome strains were cultured in the standard HMI-9 medium supplemented with 10% fetal bovine serum (FBS) at 37° C. in a 5% CO2 atmosphere.
# [2] = test system: T. cruzi Tulahuen CL2 β galactosidase strain; assay: T. cruzi Tulahuen CL2 β galactosidase strain on MRC-5SV2 cells (CPRG); type: cell-based, Trypanosoma cruzi; conditions: Trypanosoma cruzi, TULAHUEN, MRC-5 SV2; Table 5; average of 2-4 independent replicates
# Method: All cultures and assays were conducted at 37° C./5% CO2. […] The results were expressed as % reduction in parasite burdens compared to control wells from which an EC50 was calculated.
# [3] = Cytotoxicity against MRC-5 fibroblasts; conditions: human
# Method: Cytotoxicity was assayed against MRC-5 fibroblasts. Results are depicted in Tables 4 and 5.
# [4] = test system: T. b. rhodesiense STIB-900; assay: In vitro drug susceptibility, T. b. rhodesiense STIB-900 (resazurin); type: cell-based, Trypanosoma brucei rhodesiense; conditions: for EC50: Trypanosoma brucei, RHODESIENSE
# Method: as §2
# [5] = test system: T. vaginalis trophozoites (metronidazole susceptible G3 strain); assay: Trichomonas vaginalis in vitro assay; type: cell-based; conditions: Trichomonas vaginalis; Table 6; average of 2-5 independent replicates
# Method: T. vaginalis trophozoites (metronidazole susceptible G3 strain) were grown in vitro in modified Diamond's media (MDM) with 10% heat inactivated horse serum (HIHS) acquired from Gibco Life Technologies. After medium preparation, the pH was adjusted to 6.3-6.4 employing 1.0 M aq. HCl. Parasites cultures were passaged every day by taking 1 mL of cell culture into a 25 mL bottle of fresh media to ensure the cells were kept at the appropriate concentration of ˜2×10^6 cells/mL. The culture flasks were filled completely and tightly capped to provide the cells with an anaerobic environment. The parasites were maintained in incubation at 37° C. When culturing in multiwell plates, the plates were sealed with Nescofilm® and inserted in BD GasPak EZ pouches (BD Diagnostics, UK) in order to create anaerobic conditions. Assays were performed with 5×10^4 trophozoites/well (100 μL) to which compound dilutions were added (100 μL). Outside wells of columns and rows were filled with 200 μL of sterile water. Plates were sealed with Nescofilm® and incubated under anaerobic conditions as described above. After 24 h, 30 μL of assay dye solution (resorufin) was added, and incubated for 1-2 h before being read using Fluostar Optima (BMG Labtech, UK) at an excitation wavelength of 544 nm and an emission wavelength of 620 nm.
# T. b. brucei Squib 427 = assay: In vivo antiparasitic activity in mice (T. brucei; acute model); parameters: species or system Trypanosoma brucei brucei; conditions: for clinical symptoms of trypanosomiasis / parasitemia: infected mice, 5 consecutive days, test compound 25 mg/kg PO b.i.d. (FH7429_D also 10 mg/kg s.i.d. IP), suramin 10 mg/kg
# Method: The test compound of the invention was formulated in 10% (V/V) PEG400 in water at 2 mg/mL and was freshly prepared at every administration. The test compound was administered orally (PO) b.i.d. for 5 days at 25 mg/kg. The reference drug suramin was formulated in PBS at 2.5 mg/mL and administered s.i.d. IP for 5 days at 10 mg/kg. Treatment was initiated ½ hour prior to the IP infection.
# T. cruzi (Y-strain) = assay: In vivo antiparasitic activity in mice (T. cruzi Y-strain); parameters: species or system Trypanosoma cruzi; conditions: 25 mg/kg PO b.i.d. for five days starting at 5 dpi
# Method: The animals were allowed to acclimate for 7 days before starting the experiments. […] Age-matched non-infected mice were maintained under identical conditions. The animals were divided into the following groups (n=6): uninfected (non-infected and non-treated), untreated (infected but treated only with vehicle), and treated (infected and treated with the compounds). […] Formulations were prepared freshly before each administration. Only mice with positive parasitemia were used in the infected groups. Parasitemia was individually checked by direct microscopic counting of the number of parasites in 5 μl of blood (Panel A—FIG. 5), and mice were checked for mortality daily until 30 days post-treatment (corresponding to 40 dpi). Mortality is expressed as the percent cumulative mortality (CM; Panel B—FIG. 5).
# [6] = read-out: T.b. brucei EC50, Table 4, average of 2-6 independent determinations
# [7] = read-out: EC50 against T. brucei
# [8] = MRC-5 fibroblasts, MRC-5 EC50, Table 4, cytotoxicity
# [9] = MRC-5 fibroblasts, MRC-5 EC50, Table 5, cytotoxicity
Structure (SMILES),EC50 [1] [nM],EC50 (T. b. brucei B48) [nM],EC50 (T. b. brucei ISMR1) [nM],RF (resistance factor) ISMR1 (T. b. brucei ISMR1),EC50 (T. b. brucei TbAT1-KO) [nM],RF (resistance factor) TbAT1-KO (T. b. brucei TbAT1-KO),EC50 (T. brucei Squib 427; [6]) [nM],EC50 [2] [nM],EC50 ([4]; read-out: T.b. rhod. EC50) [nM],EC50 [5] [nM],melting point,"EC50 [3, 8] [nM]","EC50 [3, 9] [nM]",other results
CC[n+]1c(-c2ccccc2)c2cc(N/N=N/c3cccc(C(=N)N)c3)ccc2c2ccc(N)cc21 [Isometamidium],650 ± 85,560 ± 130,3100 ± 500,4.81,750 ± 140,1.2,,,,,,,,RF (resistance factor) B48 (T. b. brucei B48): 0.85
"Nc1ncnc2c1ccn2[C@@H]1O[C@H](CO)[C@@H](O)[C@H]1O [FH5284, tubercidin]",150 ± 30,4300 ± 1300,1700 ± 500,,2600 ± 700,> 17 and 17.2,480,340,,,,,,EC50 [3]: 2230 nM
"Nc1ncnc2c1c(-c1ccc(F)cc1)cn2[C@@H]1O[C@H](CO)[C@@H](O)[C@H]1O [MS1001, 4-amino-5-(4-fluorophenyl)-N7-(β-D-ribofuranosyl)-pyrrolo[2,3-d]pyrimidine]",,,,,,,8810,490,14700,110,145 to 148 °C (dec.),> 64000,> 64000,EC50 (T. brucei Squib 427; [7]): < 10000 nM
N=C(N)c1ccc(/N=N/Nc2ccc(C(=N)N)cc2)cc1 [Diminazene],420 ± 64,7200 ± 1600,2900 ± 420,6.9,4500 ± 900,10.6,,,,,,,,
"Cc1ccc(C(=O)Nc2ccc(S(=O)(=O)O)c3cc(S(=O)(=O)O)cc(S(=O)(=O)O)c23)cc1NC(=O)c1cccc(NC(=O)Nc2cccc(C(=O)Nc3cc(C(=O)Nc4ccc(S(=O)(=O)O)c5cc(S(=O)(=O)O)cc(S(=O)(=O)O)c45)ccc3C)c2)c1 [Suramin, reference compound]",,,,,,,,,,,,,,"EC50 (T. brucei Squib 427; Table 1, average of 2-4 independent determinations, read-out: T. brucei brucei EC50): 50 nM; EC50 (T. brucei Squib 427; Table 4, average of 2-6 independent determinations, read-out: T.b. brucei EC50): 50 nM; EC50 ([4]; Table 1, average of 2-4 independent determinations, read-out: T. brucei rhod. EC50): 40 nM; EC50 ([4]; Table 4, average of 2-6 independent determinations, read-out: T.b. rhod. EC50): 40 nM; clinical symptoms of trypanosomiasis / parasitemia (T. b. brucei Squib 427): no symptoms nor parasitemia developed"
"Nc1ncnc2c1c(-c1ccc(Cl)cc1)cn2[C@@H]1O[C@H](CO)[C@@H](O)[C@H]1O [TH1012, 4-amino-5-(4-chlorophenyl)-N7-(β-D-ribofuranosyl)-pyrrolo[2,3-d]pyrimidine]",,,,,,,7580,470,,30,,27000,27000,"blood parasitemia (T. cruzi (Y-strain)): full suppression of parasitemia; mortality caused by the infection (T. cruzi (Y-strain)): protected animals from mortality; anti-trypanosomal activity against T. brucei, in words (T. brucei Squib 427): low μM EC50"
N=C(N)c1ccc(OCCCCCOc2ccc(C(=N)N)cc2)cc1 [Pentamidine],,990 ± 160,140 ± 40,,18 ± 2,1.8,,,,,,,,EC50 ([1]; reference cell line): 11 ± 1 nM
"Nc1ncnc2c1c(-c1ccccn1)cn2[C@@H]1O[C@H](CO)[C@@H](O)[C@H]1O [TH1008, 4-amino-5-(pyrid-2-yl)-N7-(β-D-ribofuranosyl)-pyrrolo[2,3-d]pyrimidine]",170 ± 40,270 ± 40,430 ± 70,2.5,400 ± 90,2.4,360,5020,31,,,,,"anti-trypanosomal activity against T. brucei, in words (T. brucei Squib 427): nanomolar antitrypanosomal activity; selectivity index (SI) for T. b. brucei (T. brucei Squib 427): 50; selectivity index for T. b. rhodesiense ([4]; MRC-5 versus T. b. rhodesiense): ~500; detectability of parasites in the peripheral blood (T. b. brucei Squib 427; 25 mg/kg PO b.i.d. for 5 days): undetectable from 8 dpi onwards; parasites in the peripheral blood, mean Log10 (T. b. brucei Squib 427; 4 dpi, 25 mg/kg PO b.i.d. for 5 days): 7.5; parasitological cure (sub-inoculation in naive mice) (T. b. brucei Squib 427; animals surviving until day 21 post infection): total parasitological cure; clinical symptoms of trypanosomiasis / parasitemia (T. b. brucei Squib 427): no clinical symptoms of trypanosomiasis were observed; adverse drug effects (T. b. brucei Squib 427; mice, 5 days treatment): No signs of adverse drug effects were observed; RF (resistance factor) B48 (T. b. brucei B48): 1.6"
"Nc1ncnc2c1c(-c1ccc(Cl)c(Cl)c1)cn2[C@@H]1O[C@H](CO)[C@@H](O)[C@H]1O [FH3147, 4-amino-5-(3,4-dichlorophenyl)-N7-(β-D-ribofuranosyl)-pyrrolo[2,3-d]pyrimidine]",,,,,,,3070,190,320,20,221 to 223 °C,14700,14700,selectivity index (SI) for T. b. brucei (T. brucei Squib 427): ~5
"Nc1ncnc2c1c(-c1cccc(Cl)c1)cn2[C@@H]1O[C@H](CO)[C@@H](O)[C@H]1O [FH8459, 4-amino-5-(3-chlorophenyl)-N7-(β-D-ribofuranosyl)-pyrrolo[2,3-d]pyrimidine]",,,,,,,9900,1420,6880,240,135 °C,32800,32800,EC50 (T. brucei Squib 427; [7]): < 10000 nM
